Assay results as given in patent US20150175651A1, “NEUROACTIVE STEROIDS, COMPOSITIONS, AND USES THEREOF” (SAGE THERAPEUTICS, INC., priority 2012, published 2015).

The compounds below were run against GABA receptor complex (GRC), [35S]-TBPS binding in rat brain cortical membranes (assay: Steroid inhibition of [35S]-TBPS binding (radioligand displacement)). Conditions: 2 nM [35S]-TBPS, in the presence of 5 μM GABA, read-out: 35S-TBPS Radioligand Displacement (Control IC50).
Experimental: TBPS binding assays using rat brain cortical membranes in the presence of 5 μM GABA has been described (Gee et al, J. Pharmacol. Exp. Ther. 1987, 241, 346-353; Hawkinson et al, Mol. Pharmacol. 1994, 46, 977-985).
Briefly, cortices are rapidly removed following decapitation of carbon dioxide-anesthetized Sprague-Dawley rats (200-250 g). The cortices are homogenized in 10 volumes of ice-cold 0.32 M sucrose using a glass/teflon homogenizer and centrifuged at 1500×g for 10 min at 4° C. The resultant supernatants are centrifuged at 10,000×g for 20 min at 4° C. to obtain the P2 pellets. The P2 pellets are resuspended in 200 mM NaCl/50 mM Na—K phosphate pH 7.4 buffer and centrifuged at 10,000×g for 10 min at 4 OC. This ishing procedure is repeated twice and the pellets are resuspended in 10 volumes of buffer. Aliquots (100 μL) of the membrane suspensions are incubated with 2 nM [^35S]-TBPS and 5 μL, aliquots of test drug dissolved in dimethyl sulfoxide (DMSO) (final 0.5%) in the presence of 5 μM GABA. The incubation is brought to a final volume of 1.0 mL with buffer. Nonspecific binding is determined in the presence of 2 μM unlabeled TBPS and ranged from 15 to 25%. Following a 90 min incubation at room temp, the assays are terminated by filtration through glass fiber filters (Schleicher and Schuell No. 32) using a cell harvester (Brandel) and rinsed three times with ice-cold buffer. Filter bound radioactivity is measured by liquid scintillation spectrometry. Non-linear curve fitting of the overall data for each drug averaged for each concentration is done using Prism (GraphPad). […] The concentration of test compound producing 50% inhibition (IC50) of specific binding and the maximal extent of inhibition (Imax) are determined for the individual experiments with the same model used for the overall data and then the means+SEM.s of the individual experiments are calculated.
Various compounds are or can be screened to determine their potential as modulators of [^35S]-TBPS binding in vitro. These assays are or can be performed in accordance with the above discussed procedures.

SMILES	IC50 [nM]
CC(=O)O[C@H]1C[C@@]2(C)[C@@H](CC[C@@H]3[C@@H]2CC[C@]2(C)[C@@H](C(=O)CO)CC[C@@H]32)C[C@@H]1O [Compound 6]	100 to 500
CC(=O)O[C@H]1C[C@@H]2[C@H](CC[C@]3(C)[C@@H](C(=O)CO)CC[C@@H]23)[C@@]2(C)CC[C@@H](O)C[C@H]12 [Compound 9, (3R,5S,6S,8R,9S,10R,13S,14S,17S)-3-hydroxy-17-(2-hydroxyacetyl)-10,13-dimethyl-hexadecahydro-1H-cyclopenta[a]phenanthren-6-yl acetate]	100 to 500
CC(=O)OC1CC2(C)C(=CC#N)CCC2C2CCC3CC(O)CCC3C12 (centres unmarked) [Compound 11]	100 to 500
CC(=O)O[C@H]1C[C@]2(C)/C(=C\C#N)CC[C@H]2[C@@H]2CC[C@H]3C[C@H](O)CC[C@]3(C)[C@H]21 [Compound 4, (3R,5S,8S,9S,10S,11S,13S,14S,Z)-17-(cyanomethylene)-3-hydroxy-10,13-dimethyl-hexadecahydro-1H-cyclopenta[a]phenanthren-11-yl acetate]	100 to 500
CC(=O)O[C@H]1C[C@@H]2[C@H](CC[C@]3(C)/C(=C\C#N)CC[C@@H]23)[C@@]2(C)CC[C@@H](O)C[C@H]12 [Compound 3, (3R,5S,6S,8R,9S,10R,13S,14S,Z)-17-(cyanomethylene)-3-hydroxy-10,13-dimethyl-hexadecahydro-1H-cyclopenta[a]phenanthren-6-yl acetate]	100 to 500
CC(=O)O[C@H]1C[C@@]2(C)[C@@H](CC[C@@H]3[C@@H]2CC[C@]2(C)/C(=C\C#N)CC[C@@H]32)C[C@@H]1O [Compound 1, (2S,3S,5S,8R,9S,10S,13S,14S,Z)-17-(cyanomethylene)-3-hydroxy-10,13-dimethyl-hexadecahydro-1H-cyclopenta[a]phenanthren-2-yl acetate]	100 to 500
C[C@]12C[C@H](OC(=O)c3ccccc3)[C@@H](O)C[C@@H]1CC[C@@H]1[C@@H]2CC[C@]2(C)[C@@H](C(=O)CO)CC[C@@H]12 [Compound 2, (2S,3S,5S,8R,9S,10S,13S,14S,17S)-3-hydroxy-17-(2-hydroxyacetyl)-10,13-dimethyl-hexadecahydro-1H-cyclopenta[a]phenanthren-2-yl benzoate]	100 to 500
CC(=O)O[C@H]1C[C@]2(C)[C@@H](C(=O)CO)CC[C@H]2[C@@H]2CC[C@H]3C[C@H](O)CC[C@]3(C)[C@H]21 [Compound 7, (3R,5S,8S,9S,10S,11S,13S,14S,17S)-3-hydroxy-17-(2-hydroxyacetyl)-10,13-dimethyl-hexadecahydro-1H-cyclopenta[a]phenanthren-11-yl acetate]	100 to 500
CC(=O)O[C@H]1C[C@@H]2[C@H](CC[C@]3(C)[C@@H](C(C)=O)CC[C@@H]23)[C@@]2(C)CC[C@@H](O)C[C@H]12 [Compound 8, (3R,5S,6S,8R,9S,10R,13S,14S,17S)-17-acetyl-3-hydroxy-10,13-dimethyl-hexadecahydro-1H-cyclopenta[a]phenanthren-6-yl acetate]	100 to 500
CO[C@H]1CC[C@H]2[C@@H]3CC[C@H]4C[C@H](O)CC[C@]4(COC(C)=O)[C@H]3CC[C@]12C [Compound 13]	100 to 500
CC(=O)OC[C@]12CC[C@@H](O)C[C@@H]1CC[C@@H]1[C@@H]2CC[C@]2(C)/C(=C\C#N)CC[C@@H]12 [Compound 5, ((3R,5S,8S,9S,10R,13S,14S,Z)-17-(cyanomethylene)-3-hydroxy-13-methyl-hexadecahydro-1H-cyclopenta[a]phenanthren-10-yl)methyl acetate]	100 to 500
